# Source: ChEMBL document CHEMBL1909046, “DrugMatrix in vitro pharmacology data”
# Key:
# [1] = target: T1, Alpha-2A adrenergic receptor (Homo sapiens, UniProt P08913); format: cell membranes, Sf9, Membrane; note: in other assays of this panel Not Active means under 50% inhibition at 10 µM
# T1 sequence (P08913 whole entry): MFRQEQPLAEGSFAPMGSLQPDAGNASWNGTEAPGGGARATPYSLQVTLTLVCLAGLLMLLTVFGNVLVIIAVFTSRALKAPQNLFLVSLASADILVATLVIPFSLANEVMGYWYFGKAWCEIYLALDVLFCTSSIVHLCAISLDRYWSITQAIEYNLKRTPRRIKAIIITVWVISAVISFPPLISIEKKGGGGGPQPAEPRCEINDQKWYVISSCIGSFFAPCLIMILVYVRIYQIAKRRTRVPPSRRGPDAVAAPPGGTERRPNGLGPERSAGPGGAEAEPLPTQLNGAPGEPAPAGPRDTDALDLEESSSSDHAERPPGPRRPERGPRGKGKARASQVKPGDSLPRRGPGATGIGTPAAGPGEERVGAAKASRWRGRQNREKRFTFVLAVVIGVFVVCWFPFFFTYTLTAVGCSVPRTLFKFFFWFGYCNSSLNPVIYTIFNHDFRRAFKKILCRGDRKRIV
# [2] = target: T2, Alpha-1B adrenergic receptor (Rattus norvegicus, UniProt P15823); assay: DRUGMATRIX: Alpha-1B adrenergic receptor radioligand binding (ligand: prazosin); format: cell membranes, Wistar, Liver, Membrane; conditions: Not Active = under 50% inhibition at 10 µM
# T2 sequence (P15823 whole entry): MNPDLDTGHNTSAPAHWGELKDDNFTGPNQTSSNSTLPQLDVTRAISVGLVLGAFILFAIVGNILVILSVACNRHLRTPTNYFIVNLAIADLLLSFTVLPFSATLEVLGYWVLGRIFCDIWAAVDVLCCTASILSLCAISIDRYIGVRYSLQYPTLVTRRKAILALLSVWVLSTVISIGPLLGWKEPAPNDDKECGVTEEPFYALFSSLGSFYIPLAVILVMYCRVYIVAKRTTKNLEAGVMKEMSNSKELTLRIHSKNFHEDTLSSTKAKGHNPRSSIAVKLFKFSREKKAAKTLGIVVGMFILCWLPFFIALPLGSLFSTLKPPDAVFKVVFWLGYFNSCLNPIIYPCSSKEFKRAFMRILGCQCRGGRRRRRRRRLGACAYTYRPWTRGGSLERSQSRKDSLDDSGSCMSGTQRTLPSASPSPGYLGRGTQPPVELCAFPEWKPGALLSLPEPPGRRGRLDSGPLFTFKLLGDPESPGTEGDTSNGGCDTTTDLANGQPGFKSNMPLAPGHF
# Cytochrome P450 2E1 = Cytochrome P450 2E1 (Homo sapiens, UniProt P05181); conditions: bti-tn-5b1-4; note: in other assays of this panel Not Active means under 50% inhibition at 10 µM
# [3] = target: T3, 3-hydroxy-3-methylglutaryl-coenzyme A reductase (Homo sapiens, UniProt P04035); parameters: species or system Escherichia coli;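 note: enzyme inhibition assay of HMG-CoA reductase using radiolabeled [14C]HMG-CoA as substrate; in other assays of this panel Not Active means under 50% inhibition at 10 µM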
# T3 sequence (P04035 whole entry): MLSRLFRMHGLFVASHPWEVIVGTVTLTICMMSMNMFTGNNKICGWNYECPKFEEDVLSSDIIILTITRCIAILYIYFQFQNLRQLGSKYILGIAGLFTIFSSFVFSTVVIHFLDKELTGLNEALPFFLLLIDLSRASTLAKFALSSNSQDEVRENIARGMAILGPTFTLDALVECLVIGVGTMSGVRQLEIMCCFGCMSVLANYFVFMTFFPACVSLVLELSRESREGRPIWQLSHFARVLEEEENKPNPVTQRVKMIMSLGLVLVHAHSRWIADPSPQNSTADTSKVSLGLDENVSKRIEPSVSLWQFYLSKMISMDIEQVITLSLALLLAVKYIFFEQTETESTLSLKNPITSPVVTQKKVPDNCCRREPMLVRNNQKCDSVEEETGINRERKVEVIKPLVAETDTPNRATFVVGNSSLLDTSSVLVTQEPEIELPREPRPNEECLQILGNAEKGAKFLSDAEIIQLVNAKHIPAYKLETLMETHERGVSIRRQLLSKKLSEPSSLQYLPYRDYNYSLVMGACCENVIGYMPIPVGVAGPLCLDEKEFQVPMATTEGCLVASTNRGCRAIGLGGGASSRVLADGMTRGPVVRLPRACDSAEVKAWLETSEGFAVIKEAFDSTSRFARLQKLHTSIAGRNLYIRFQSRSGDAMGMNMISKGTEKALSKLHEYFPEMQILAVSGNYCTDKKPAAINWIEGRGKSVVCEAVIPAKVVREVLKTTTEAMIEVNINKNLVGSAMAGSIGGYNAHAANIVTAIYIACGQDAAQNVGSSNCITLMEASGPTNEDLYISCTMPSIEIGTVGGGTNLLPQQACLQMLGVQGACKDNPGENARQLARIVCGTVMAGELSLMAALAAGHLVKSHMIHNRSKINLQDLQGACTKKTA
# [4] = target: Voltage-gated inwardly rectifying potassium channel KCNH2 (Homo sapiens, UniProt Q12809); conditions: hek293; note: in other assays of this panel Not Active means under 50% inhibition at 10 µM
# [5] = target: cGMP-specific 3',5'-cyclic phosphodiesterase (Homo sapiens, UniProt O76074); assay: DRUGMATRIX: Phosphodiesterase PDE5 enzyme inhibition (substrate: [3H]cGMP + cGMP); format: tissue-based, Platelet; conditions: platelet; Not Active = under 50% inhibition at 10 µM
# Cytochrome P450 1A2 = target: T4, Cytochrome P450 1A2 (Homo sapiens, UniProt P05177); conditions: bti-tn-5b1-4; note: in other assays of this panel Not Active means under 50% inhibition at 10 µM
# T4 sequence (P05177 whole entry): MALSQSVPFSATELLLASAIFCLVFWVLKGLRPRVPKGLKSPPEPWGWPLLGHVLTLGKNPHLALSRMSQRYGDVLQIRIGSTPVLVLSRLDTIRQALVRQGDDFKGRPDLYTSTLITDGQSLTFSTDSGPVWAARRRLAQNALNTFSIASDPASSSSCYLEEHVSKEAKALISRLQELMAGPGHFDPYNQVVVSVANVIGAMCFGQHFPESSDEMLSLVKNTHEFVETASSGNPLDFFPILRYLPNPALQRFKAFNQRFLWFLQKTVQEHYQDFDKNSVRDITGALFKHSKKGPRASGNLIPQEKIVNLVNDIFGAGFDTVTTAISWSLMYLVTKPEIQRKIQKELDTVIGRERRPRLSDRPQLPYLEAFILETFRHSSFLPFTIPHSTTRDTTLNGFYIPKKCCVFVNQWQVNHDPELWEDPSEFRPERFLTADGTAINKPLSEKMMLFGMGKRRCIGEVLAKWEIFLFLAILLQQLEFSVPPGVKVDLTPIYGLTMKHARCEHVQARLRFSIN
# [6] = target: Protein kinase C alpha type (Homo sapiens, UniProt P17252); format: cell-based; conditions: sf9
# D(1A) dopamine receptor = D(1A) dopamine receptor (Homo sapiens, UniProt P21728); assay: DRUGMATRIX: Dopamine D1 radioligand binding (ligand: [3H] SCH-23390); format: cell membranes, CHO, Membrane; conditions: cho; Not Active = under 50% inhibition at 10 µM
# Glycine receptor = Glycine receptor (Rattus norvegicus, UniProt P22771+P24524+P07727+P20781); format: cell membranes, Wistar, Spinal cord, Membrane; note: in other assays of this panel Not Active means under 50% inhibition at 10 µM
# D(1A) dopamine receptor, sequence (P21728 whole entry): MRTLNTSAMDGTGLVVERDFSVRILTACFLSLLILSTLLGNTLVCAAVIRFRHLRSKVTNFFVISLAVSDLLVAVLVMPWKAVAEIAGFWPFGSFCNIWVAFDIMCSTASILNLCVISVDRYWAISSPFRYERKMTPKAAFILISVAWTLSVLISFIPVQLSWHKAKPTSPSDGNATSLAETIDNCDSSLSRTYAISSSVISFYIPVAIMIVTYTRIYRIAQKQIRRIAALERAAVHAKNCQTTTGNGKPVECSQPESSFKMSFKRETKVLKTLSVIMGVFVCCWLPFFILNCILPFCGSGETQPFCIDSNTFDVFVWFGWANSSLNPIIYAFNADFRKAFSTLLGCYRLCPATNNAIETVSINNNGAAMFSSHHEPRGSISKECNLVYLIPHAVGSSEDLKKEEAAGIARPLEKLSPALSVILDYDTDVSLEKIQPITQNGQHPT
# Cytochrome P450 2E1, sequence (P05181 whole entry): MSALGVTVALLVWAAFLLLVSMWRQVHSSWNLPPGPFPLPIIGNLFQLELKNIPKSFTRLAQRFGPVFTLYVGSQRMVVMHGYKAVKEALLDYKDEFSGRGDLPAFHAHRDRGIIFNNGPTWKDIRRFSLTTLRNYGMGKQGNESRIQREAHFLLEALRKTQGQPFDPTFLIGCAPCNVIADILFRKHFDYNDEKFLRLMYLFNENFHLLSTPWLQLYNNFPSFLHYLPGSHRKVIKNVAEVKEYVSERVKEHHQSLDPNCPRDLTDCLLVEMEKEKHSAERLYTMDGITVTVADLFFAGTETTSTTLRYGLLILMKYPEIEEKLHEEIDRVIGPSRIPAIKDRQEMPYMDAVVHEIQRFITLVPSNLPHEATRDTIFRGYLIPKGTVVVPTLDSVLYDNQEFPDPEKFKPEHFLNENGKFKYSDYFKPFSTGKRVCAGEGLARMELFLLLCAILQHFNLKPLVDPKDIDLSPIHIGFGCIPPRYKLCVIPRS
# Voltage-gated inwardly rectifying potassium channel KCNH2, sequence (Q12809 whole entry): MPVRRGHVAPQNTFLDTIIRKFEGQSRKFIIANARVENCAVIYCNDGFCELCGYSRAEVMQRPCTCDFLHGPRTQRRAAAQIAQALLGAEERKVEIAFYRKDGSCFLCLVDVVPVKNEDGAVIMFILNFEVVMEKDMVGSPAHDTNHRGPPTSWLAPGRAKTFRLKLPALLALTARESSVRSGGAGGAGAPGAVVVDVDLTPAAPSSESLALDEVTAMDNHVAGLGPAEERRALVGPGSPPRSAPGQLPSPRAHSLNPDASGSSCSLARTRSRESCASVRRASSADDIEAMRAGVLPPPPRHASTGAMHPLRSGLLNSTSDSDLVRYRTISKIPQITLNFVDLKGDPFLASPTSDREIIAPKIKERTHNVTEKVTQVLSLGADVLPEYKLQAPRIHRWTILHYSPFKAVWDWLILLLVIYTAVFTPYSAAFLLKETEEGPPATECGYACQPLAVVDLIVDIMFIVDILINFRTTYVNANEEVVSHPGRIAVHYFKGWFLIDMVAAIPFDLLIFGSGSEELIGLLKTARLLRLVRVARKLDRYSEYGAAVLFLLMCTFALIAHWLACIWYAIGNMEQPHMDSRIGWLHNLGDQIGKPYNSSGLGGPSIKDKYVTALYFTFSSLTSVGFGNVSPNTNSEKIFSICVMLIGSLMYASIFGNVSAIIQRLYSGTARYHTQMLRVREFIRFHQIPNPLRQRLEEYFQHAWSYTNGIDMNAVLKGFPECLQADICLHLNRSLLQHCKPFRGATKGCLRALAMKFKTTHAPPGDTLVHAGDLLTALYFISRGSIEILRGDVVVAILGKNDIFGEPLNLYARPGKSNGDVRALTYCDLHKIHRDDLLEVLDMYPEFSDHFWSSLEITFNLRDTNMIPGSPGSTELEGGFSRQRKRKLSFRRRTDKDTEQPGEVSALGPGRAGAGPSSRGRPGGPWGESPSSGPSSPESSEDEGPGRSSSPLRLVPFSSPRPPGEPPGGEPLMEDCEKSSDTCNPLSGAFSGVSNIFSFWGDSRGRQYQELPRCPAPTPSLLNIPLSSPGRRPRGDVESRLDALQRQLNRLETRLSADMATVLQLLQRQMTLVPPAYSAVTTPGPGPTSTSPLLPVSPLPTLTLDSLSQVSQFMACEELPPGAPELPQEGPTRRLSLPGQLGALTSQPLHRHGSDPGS
SMILES,IC50 ([1]; sf9),IC50 [2],IC50 (Cytochrome P450 2E1),Ki (Cytochrome P450 2E1),IC50 [3],IC50 [4],Ki [4],IC50 [5],IC50 (Cytochrome P450 1A2),Ki (Cytochrome P450 1A2),IC50 [6],IC50 (D(1A) dopamine receptor),IC50 (Glycine receptor),IC50 ([3]; read-out: IC50),IC50 ([1]; read-out: IC50),Ki ([1]; read-out: Ki)
C=C1[C@@H]2CCC3[C@@](CC[C@@H]4[C@H](C(=O)O)C[C@@H](O[C@@H]5O[C@H](CO)[C@@H](OS(=O)(=O)[O-])[C@H](OS(=O)(=O)[O-])[C@H]5OC(=O)CC(C)C)C[C@@]34C)(C2)[C@@H]1O.[K+].[K+] (stereo partly drawn) [ATRACTYLOSIDE],Not Active,Not Active,Not Active,Not Active,Not Active,Not Active,Not Active,Not Active,Not Active,Not Active,Not Active,Not Active,Not Active,–,–,–
CC1(C)[C@@H](O[C@H]2O[C@H](C(=O)O)[C@@H](O)[C@H](O)[C@H]2O[C@@H]2O[C@H](C(=O)O)[C@@H](O)[C@H](O)[C@H]2O)CC[C@]2(C)[C@H]3C(=O)C=C4[C@@H]5C[C@@](C)(C(=O)O)CC[C@]5(C)CC[C@@]4(C)[C@]3(C)CC[C@@H]12 [GLYCYRRHIZIN],Not Active,Not Active,Not Active,Not Active,Not Active,Not Active,Not Active,Not Active,Not Active,Not Active,Not Active,Not Active,Not Active,–,–,–
Cn1cnc([N+](=O)[O-])c1Sc1ncnc2nc[nH]c12 [AZATHIOPRINE],Not Active,Not Active,Not Active,Not Active,Not Active,Not Active,Not Active,Not Active,Not Active,Not Active,Not Active,Not Active,Not Active,–,–,–
CC(C)n1c(/C=C/C(O)CC(O)CC(=O)O)c(-c2ccc(F)cc2)c2ccccc21 (stereo not drawn) [FLUVASTATIN],Not Active,Not Active,Not Active,Not Active,–,Not Active,Not Active,Not Active,Not Active,Not Active,Not Active,Not Active,Not Active,0.353 nM,–,–
Oc1c(Cl)cc(Cl)cc1Sc1cc(Cl)cc(Cl)c1O [BITHIONOL],–,Not Active,Not Active,Not Active,Not Active,Not Active,Not Active,Not Active,Not Active,Not Active,Not Active,Not Active,Not Active,–,3820 nM,1430 nM
COc1ccc2c(c1)c(CC(=O)OCC(=O)O)c(C)n2C(=O)c1ccc(Cl)cc1 [ACEMETACIN],Not Active,Not Active,Not Active,Not Active,Not Active,Not Active,Not Active,Not Active,Not Active,Not Active,Not Active,Not Active,Not Active,–,–,–
NCC[C@H](O)C(=O)N[C@@H]1C[C@H](N)[C@@H](O[C@H]2O[C@H](CN)[C@@H](O)[C@H](O)[C@H]2O)[C@H](O)[C@H]1O[C@H]1O[C@H](CO)[C@@H](O)[C@H](N)[C@H]1O [AMIKACIN],Not Active,Not Active,Not Active,Not Active,Not Active,Not Active,Not Active,Not Active,Not Active,Not Active,Not Active,Not Active,Not Active,–,–,–
CC(C)(Oc1ccc(CCNC(=O)c2ccc(Cl)cc2)cc1)C(=O)O [BEZAFIBRATE],Not Active,Not Active,Not Active,Not Active,Not Active,Not Active,Not Active,Not Active,Not Active,Not Active,Not Active,Not Active,Not Active,–,–,–
CCCSc1ccc2nc(NC(=O)OC)[nH]c2c1 [ALBENDAZOLE],Not Active,Not Active,Not Active,Not Active,Not Active,Not Active,Not Active,Not Active,Not Active,Not Active,Not Active,Not Active,Not Active,–,–,–
